This note sets out measurements from US20060252807A1, “Novel ortho-terphenyl inhibitors of p38 kinase and methods of treating inflammatory disorders” (Kalypsys, Inc., priority 2005, published 2006).

T1 sequence (Q16539 whole entry): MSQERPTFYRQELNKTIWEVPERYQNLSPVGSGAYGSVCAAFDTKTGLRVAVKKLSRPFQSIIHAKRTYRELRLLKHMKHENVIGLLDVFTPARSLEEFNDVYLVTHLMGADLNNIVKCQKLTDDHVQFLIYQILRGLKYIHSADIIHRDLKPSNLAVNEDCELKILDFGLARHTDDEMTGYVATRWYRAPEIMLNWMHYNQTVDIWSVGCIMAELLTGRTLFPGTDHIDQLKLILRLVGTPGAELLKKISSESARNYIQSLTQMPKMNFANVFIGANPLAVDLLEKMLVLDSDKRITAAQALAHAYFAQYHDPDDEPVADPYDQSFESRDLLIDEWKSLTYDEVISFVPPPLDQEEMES

This test addresses T1, active p38 alpha enzyme (Upstate Biotechnology) (Homo sapiens, UniProt Q16539).
T1 construct: purchased Upstate Biotechnology
Description: p38α biochemical assay (ATP turnover, luminescent detection, Cambrex PKlight). The following applies: p38α kinase; Table 1 Biological Activity. The essentials: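 Measures total ATP turnover by luminescence after human p38α phosphorylates full MapkapK2 protein. Final ATP is 1.4 uM, and incubation runs 2 hours at 30C. The buffer includes 100 mM MgCl2, 4 mM CaCl2 and 1 mg/ml BSA.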
What is called IC50 is the point on the concentration scale where inhibition reaches its midpoint. For the compound `Cc1nc(-c2ccc(F)cc2)c(-c2nc(C(=O)NCc3ccc4c(c3)OCO4)cs2)s1` [Example 1796], the IC50 is at most 1000 nM.
The same measure for `COc1cccc(CCNC(=O)c2csc(-c3sc(C)nc3-c3ccc(F)cc3)n2)c1` [Example 1797]: at most 1000 nM.
The same measure for `Cc1nc(-c2ccc(F)cc2)c(-c2nc(C(=O)N[C@H](CO)Cc3ccccc3)cs2)s1` [Example 1798]: at most 1000 nM; for `COc1ccc(CCNC(=O)c2csc(-c3sc(C)nc3-c3ccc(F)cc3)n2)cc1` [Example 1799]: at most 1000 nM; for `COc1ccccc1CCNC(=O)c1csc(-c2sc(C)nc2-c2ccc(F)cc2)n1` [Example 1800]: at most 1000 nM.
To `CCOc1ccccc1CNC(=O)c1csc(-c2sc(C)nc2-c2ccc(F)cc2)n1` [Example 1801] belongs at most 1000 nM; to `Cc1nc(-c2ccc(F)cc2)c(-c2nc(C(=O)NCCc3ccccc3Cl)cs2)s1` [Example 1802], at most 1000 nM; to `Cc1nc(-c2ccc(F)cc2)c(-c2nc(C(=O)NCCc3ccc(Cl)cc3)cs2)s1` [Example 1803], at most 1000 nM.
The compound `Cc1nc(-c2ccc(F)cc2)c(-c2nc(C(=O)NCCc3cccc(Cl)c3)cs2)s1` [Example 1804] gave an IC50 of at most 1000 nM.
`Cc1nc(-c2ccc(F)cc2)c(-c2nc(C(=O)NC3CC(C)(C)NC(C)(C)C3)cs2)s1` [Example 1805] showed a 50% inhibitory concentration (IC50) above 1000 nM.
The same measure for `CCN(CC)CCCC(C)NC(=O)c1csc(-c2sc(C)nc2-c2ccc(F)cc2)n1` (centres unmarked) [Example 1806]: above 1000 nM.
Compound `Cc1nc(-c2ccc(F)cc2)c(-c2nc(C(=O)NCc3ccc(F)c(Cl)c3)cs2)s1` [Example 1807] showed an IC50 of at most 1000 nM.
To `Cc1nc(-c2ccc(F)cc2)c(-c2nc(C(=O)NCCNC(=O)OC(C)(C)C)cs2)s1` [Example 1808] belongs at most 1000 nM.
The same measure for `Cc1nc(-c2ccc(F)cc2)c(-c2nc(C(=O)NCCc3c[nH]c4ccccc34)cs2)s1` [Example 1809]: at most 1000 nM; for `Cc1nc(-c2ccc(F)cc2)c(-c2nc(C(=O)NCc3ccc(C(C)(C)C)cc3)cs2)s1` [Example 1810]: above 1000 nM; for `Cc1nc(-c2ccc(F)cc2)c(-c2nc(C(=O)NCCCN(C)c3ccccc3)cs2)s1` [Example 1811]: at most 1000 nM.
In turn, `Cc1nc(-c2ccc(F)cc2)c(-c2nc(C(=O)NCC3(O)CCCCC3)cs2)s1` [Example 1812] registered a half-maximal inhibitory concentration (IC50) of at most 1000 nM.
The same measure for `COc1cc(CNC(=O)c2csc(-c3sc(C)nc3-c3ccc(F)cc3)n2)cc(OC)c1` [Example 1813]: at most 1000 nM; for `COc1ccc(CNC(=O)c2csc(-c3sc(C)nc3-c3ccc(F)cc3)n2)cc1OC` [Example 1814]: at most 1000 nM.
In the case of `Cc1nc(-c2ccc(F)cc2)c(-c2nc(C(=O)NCC(=O)c3ccccc3)cs2)s1` [Example 1815], the concentration for half-maximal inhibition (IC50) was above 1000 nM.
The same measure for `CCOC(=O)N1CCC(NC(=O)c2csc(-c3sc(C)nc3-c3ccc(F)cc3)n2)CC1` [Example 1816]: above 1000 nM.
`Cc1nc(-c2ccc(F)cc2)c(-c2nc(C(=O)NCCCNC(=O)OC(C)(C)C)cs2)s1` [Example 1817] returned a half-inhibitory concentration (IC50) of at most 1000 nM.
To `Cc1nc(-c2ccc(F)cc2)c(-c2nc(C(=O)NCc3ccc(C(F)(F)F)cc3)cs2)s1` [Example 1818] belongs at most 1000 nM; to `Cc1nc(-c2ccc(F)cc2)c(-c2nc(C(=O)NCc3cccc(C(F)(F)F)c3)cs2)s1` [Example 1819], at most 1000 nM.
In turn, `Cc1nc(-c2ccc(F)cc2)c(-c2nc(C(=O)NCc3ccc(Cl)c(Cl)c3)cs2)s1` [Example 1820] came in with an IC50 of at most 1000 nM.
The same measure for `Cc1nc(-c2ccc(F)cc2)c(-c2nc(C(=O)NCc3ccc(Cl)cc3Cl)cs2)s1` [Example 1821]: at most 1000 nM; for `Cc1nc(-c2ccc(F)cc2)c(-c2nc(C(=O)NC3CCN(Cc4ccccc4)C3)cs2)s1` (centres unmarked) [Example 1822]: at most 1000 nM.
The same measure for `COc1ccc(OC)c(CCNC(=O)c2csc(-c3sc(C)nc3-c3ccc(F)cc3)n2)c1` [Example 1823]: at most 1000 nM.
To `Cc1nc(-c2ccc(F)cc2)c(-c2nc(C(=O)NCc3ccc(N(C)C)cc3)cs2)s1` [Example 1824] belongs at most 1000 nM; to `COc1ccc(CNC(=O)c2csc(-c3sc(C)nc3-c3ccc(F)cc3)n2)cc1O` [Example 1825], at most 1000 nM; to `Cc1nc(-c2ccc(F)cc2)c(-c2nc(C(=O)NC3CCN(Cc4ccccc4)CC3)cs2)s1` [Example 1826], above 1000 nM.
In turn, `Cc1nc(-c2ccc(F)cc2)c(-c2nc(C(=O)NCc3ccccc3OC(F)(F)F)cs2)s1` [Example 1827] returned an IC50 of at most 1000 nM.
With `Cc1nc(-c2ccc(F)cc2)c(-c2nc(C(=O)NCCc3ccc(S(N)(=O)=O)cc3)cs2)s1` [Example 1828], the IC50 was at most 1000 nM.
Take `COc1ccc(C(=O)CNC(=O)c2csc(-c3sc(C)nc3-c3ccc(F)cc3)n2)cc1` [Example 1829]: the IC50 is above 1000 nM.
Consider `Cc1nc(-c2ccc(F)cc2)c(-c2nc(C(=O)NCCc3ccc4c(c3)OCO4)cs2)s1` [Example 1830], for which the IC50 was at most 1000 nM.
For the compound `Cc1nc(-c2ccc(F)cc2)c(-c2nc(C(=O)NCCC(c3ccccc3)c3ccccc3)cs2)s1` [Example 1831], the IC50 was above 1000 nM.
Take `Cc1ccc(S(=O)(=O)NCCNC(=O)c2csc(-c3sc(C)nc3-c3ccc(F)cc3)n2)cc1` [Example 1832]: the half-maximal inhibitory concentration (IC50) is at most 1000 nM.
In turn, `Cc1nc(-c2ccc(F)cc2)c(-c2nc(C(=O)N(C)C)cs2)s1` [Example 1834] showed an IC50 above 1000 nM.
Turning to `CCN(C)C(=O)c1csc(-c2sc(C)nc2-c2ccc(F)cc2)n1` [Example 1835], the IC50 was above 1000 nM.
To `C#CCN(C)C(=O)c1csc(-c2sc(C)nc2-c2ccc(F)cc2)n1` [Example 1836] belongs above 1000 nM; to `CCN(CC)C(=O)c1csc(-c2sc(C)nc2-c2ccc(F)cc2)n1` [Example 1837], above 1000 nM.
To `CCCN(C)C(=O)c1csc(-c2sc(C)nc2-c2ccc(F)cc2)n1` [Example 1838] belongs above 1000 nM.
`Cc1nc(-c2ccc(F)cc2)c(-c2nc(C(=O)N(C)CCO)cs2)s1` [Example 1839] displayed an IC50 above 1000 nM.
In the case of `Cc1nc(-c2ccc(F)cc2)c(-c2nc(C(=O)N(C)CCC#N)cs2)s1` [Example 1840], the IC50 is above 1000 nM.
The same measure for `Cc1nc(-c2ccc(F)cc2)c(-c2nc(C(=O)N3CCOCC3)cs2)s1` [Example 1841]: above 1000 nM; for `Cc1nc(-c2ccc(F)cc2)c(-c2nc(C(=O)N(C)CC(C)C)cs2)s1` [Example 1842]: above 1000 nM; for `CCN(C(=O)c1csc(-c2sc(C)nc2-c2ccc(F)cc2)n1)C(C)C` [Example 1843]: above 1000 nM.
Regarding `CCCCN(C)C(=O)c1csc(-c2sc(C)nc2-c2ccc(F)cc2)n1` [Example 1844], the IC50 is above 1000 nM.
On to `CCN(CCO)C(=O)c1csc(-c2sc(C)nc2-c2ccc(F)cc2)n1` [Example 1845], for which the half-maximal inhibitory concentration (IC50) was above 1000 nM.
To `Cc1nc(-c2ccc(F)cc2)c(-c2nc(C(=O)N3CCSC3)cs2)s1` [Example 1846] belongs above 1000 nM; to `Cc1nc(-c2ccc(F)cc2)c(-c2nc(C(=O)N3CCCCC3C)cs2)s1` (centres unmarked) [Example 1847], above 1000 nM; to `Cc1nc(-c2ccc(F)cc2)c(-c2nc(C(=O)N3CCC(C)CC3)cs2)s1` [Example 1848], above 1000 nM.
For `Cc1nc(-c2ccc(F)cc2)c(-c2nc(C(=O)N3CCN(C)CC3)cs2)s1` [Example 1849], the 50% inhibitory concentration (IC50) was above 1000 nM.
